Test results: US11840535B2, “Alkynyl(hetero)aromatic compound for inhibiting protein kinase activity” (Shenzhen TargetRx, Inc., priority 2018, dated 2023)

Legend:
[1] = tested on: Ba/F3 Bcr-Abl T315I cells; experiment: Cell proliferation analysis, Ba/F3 Bcr-Abl T315I; format: cell-based; details: for IC50: Mus musculus, BaF3, 72 h, 3 days, CellTiter-Glo; for Selectivity [Ba/F3 (parental/Bcr-Abl ^T315I)]: ratio of Ba/F3 parental to Ba/F3 Bcr-Abl T315I
Description: (§1) The inhibitory effect of the example compounds on Ba/F3, Ba/F3 Bcr-Abl T315I cell activity was determined.
(§2) Materials and reagents: RPMI-1640 medium (GIBCO, Catalog No. A10491-01), fetal bovine serum (GIBCO, Catalog No. 10099141), antibiotics (Penicillin-Streptomycin), IL-3 (PeproTech), promycin; cell lines: Ba/F3, Ba/F3 Bcr-Abl T315I (Purchased from American type culture collection, ATCC), live cell detection kit […] (Promega, Catalog No. G7572), 96-well black wall transparent flat bottom cell culture plate (Corning, Catalog No. 3340).
(§3) Test method: 1. Preparation of cell plate: Ba/F3, Ba/F3 Bcr-Abl T315I cells were respectively seeded in 96-well plates, and 8 ng/ml IL-3 was added to the Ba/F3 cells, and the cell plates were placed in a carbon dioxide incubator and cultured overnight. 2. The test compounds were dissolved in DMSO, 9 compound concentrations were made with a 3.16-fold gradient dilution in triplicate. 3. Treatment of the cells with compounds: The compounds were transferred to the cell plate with a starting concentration of 10 μM. The cell plate was placed in a carbon dioxide incubator for 3 days. 4. Detection: CellTiter-Glo agent was added to the cell plate, and incubated at room temperature for 30 minutes to stabilize the luminous signal. PerkinElmer Envision multi-label analyzer was used for reading, wherein A represents […], B represents IC50 is 10-20 nM, C represents IC50 is 20-50 nM, D represents IC50 is 50-1000 nM, E represents IC50>1000 nM.

[2] = Metabolic stability evaluation, human liver microsome assay; format: in vitro ADME; details: pH 7.4, human liver microsomes 0.5 mg/mL, compound 1 μM, 37° C.; for microsomal CLint at 1 μM: read-out: HLM Clint; for half-life at 1 μM: read-out: HLM T1/2
Description: Microsome assay: human liver microsomes: 0.5 mg/mL, Xenotech; coenzyme (NADPH/NADH): 1 mM, Sigma Life Science; magnesium chloride: 5 mM, 100 mM phosphate buffer (pH is 7.4).
Preparation of stock solution: Powder of the example compounds and the reference compound were accurately weighed, and dissolved to 5 mM with DMSO, respectively.
Preparation of phosphate buffer (100 mM, pH7.4): Pre-formulated 150 mL 0.5 M potassium dihydrogen phosphate and 700 mL 0.5 M dipotassium hydrogen phosphate were mixed, then the pH of the mixture was adjusted to 7.4 with 0.5 M dipotassium hydrogen phosphate. Before use, 5-fold dilution was made with ultra-pure water, and magnesium chloride was added to afford phosphate buffer (100 mM), which containing 100 mM potassium phosphate, 3.3 mM magnesium chloride, and pH is 7.4.
NADPH regeneration system solution (containing 6.5 mM NADP, 16.5 mM G-6-P, 3 U/mL G-6-P D, 3.3 mM magnesium chloride) was prepared and placed on wet ice before use.
Preparation of stop solution: Acetonitrile solution containing 50 ng/mL propranolol hydrochloride and 200 ng/mL tolbutamide (internal standard). 25057.5 μL phosphate buffer (pH 7.4) was taken into a 50 mL centrifuge tube, and 812.5 μL human liver microsome was added respectively, mixed well to afford liver microsome diluention with a protein concentration of 0.625 mg/mL.
Incubation of the sample: The stock solutions of the corresponding compounds were diluted to 0.25 mM with an aqueous solution containing 70% acetonitrile as working solutions for use. 398 μL of human liver microsome diluention was taken and added to a 96-well incubation plate (N=2), respectively, and 2 μL of 0.25 mM working solutions were then added respectively, and mixed well.
Determination of metabolic stability: 300 μL of pre-chilled stop solution was added to each well of a 96-well deep well plate and the plate was placed on ice as a stop plate. The 96-well incubation plate and NADPH regeneration system were placed in a 37° C. water bath, shook at 100 rpm, and pre-incubated for 5 min. 80 μL of incubation solution was taken from each well of the incubation plate and added to the stop plate, mixed well, and 20 μL of NADPH regeneration system solution was supplemented, the resulted solution was considered as sample at 0 min. Then 80 μL of NADPH regeneration system solution was added to each well of the incubation plate to start the reaction and started timing. The reaction concentration of the corresponding compound is 1 μM, and the protein concentration is 0.5 mg/mL. 100 μL reaction solution was taken at 10, 30, 90 min of reaction, respectively, and added into stop plate, the reaction was stopped with 3 min vortex. The stop plate was centrifuged at 5000×g, 4° C. for 10 min. 100 μL of supernatant was taken to a 96-well plate where 100 μL of distilled water was added in advance, mixed well, sample analysis was carried out by LC-MS/MS.
Data analysis: LC-MS/MS system was used to detect peak area of corresponding compound and internal standard, peak area ratio of compound to internal standard was calculated. The slope was measured by plotting the natural logarithm of the remaining percentage of the compound versus time, and t1/2 and CLint were calculated according to the following formula, wherein V/M means 1/protein concentration.

ABL = ABL (Homo sapiens (Human), UniProt P00519); experiment: Biochemical kinase analysis, ABL
Description: (§4) Reagents and materials: ABL (ThermoFisher, Cat. No PV3585), ABL^T315I (Thermo Fisher, Cat. No. PR7429B), ATP (Sigma, Cat. No. A7699-1G), DMSO (Sigma, Cat. No. D2650), 96-well plate (Corning, Cat. No. 3365), 384-well plate (Greiner, Cat. No. 784076), buffer solution (Thermo Fisher, Cat. No. PR4876B).
(§5) Compound formulation: The test compounds were dissolved in DMSO to prepare a 20 mM stock solution. Before use, the compounds were diluted in DMSO to 0.1 mM, and diluted into 11 concentrations with a 3-fold gradient. When addition, diluentions of 4-fold final concentration were then made with buffer solution.
(§6) Kinase assay method: After preparing the buffer, the enzyme was mixed with pre-formulated and diluted compounds of different concentrations in duplicate for each concentration, and placed at room temperature for 30 minutes. The corresponding substrate and ATP were added thereto, and reacted at room temperature for 60 minutes (both a negative and a positive control were set). After the reaction, antibody was added for detection, Envision detection was carried out after 60 minutes incubation at room temperature, and data was collected. Data analysis and fitting were made according to XLfit5 software, wherein, A represents IC50≤5 nM, B represents IC50 is 5-50 nM, C represents IC50 is 50-100 nM, D represents IC50>100 nM.

Ba/F3 parental cells = experiment: Cell proliferation analysis, Ba/F3 parental; format: cell-based; details: Mus musculus, BaF3, 72 h; 8 ng/ml IL-3, 3 days, CellTiter-Glo
Description: as §1, §2, §3

ABL^T315I = ABL^T315I (Homo sapiens (Human), UniProt P00519, T315I); experiment: Biochemical kinase analysis, ABL T315I
Description: as §4, §5, §6

SMILES	IC50 [1]	Selectivity [Ba/F3 (parental/Bcr-Abl ^T315I)] [1]	microsomal CLint at 1 μM [2]	half-life at 1 μM [2]	IC50 (ABL)	IC50 (Ba/F3 parental cells)	IC50 (ABL^T315I)
CCn1cc(C#Cc2cc(NC(=O)c3cccc(C(F)(F)F)c3)ccc2C)c2c(N)ncnc21 [Example 17, N-(3-((4-amino-7-ethyl-7H-pyrrolo[2,3-d]pyrimidin-5-yl)ethynyl)-4-methylphenyl)-3-(trifluoromethyl)benzamide]	0.01 to 0.02 µM	50~100	17.2 µL/min/mg	1.34 h	≤ 0.005 µM	> 1 µM	≤ 0.005 µM
CCn1cc(C#Cc2cc(NC(=O)c3ccc(CN4CCN(C)CC4)c(C(F)(F)F)c3)ccc2C)c2c(N)ncnc21 [Example 18, N-(3-((4-amino-7-ethyl-7H-pyrrolo[2,3-d]pyrimidin-5-yl)ethynyl)-4-methylphenyl)-4-((4-methylpiperazin-1-yl)methyl)-3-(trifluoromethyl)benzamide]	≤ 0.01 µM	100~150	17 µL/min/mg	1.36 h	≤ 0.005 µM	> 1 µM	≤ 0.005 µM
Cc1ccc(C(=O)Nc2ccc(CN3CCN(C)CC3)c(C(F)(F)F)c2)cc1C#Cc1cn([C@H]2CC[C@H](O)CC2)c2ncnc(N)c12 [Example 22, 3-((4-amino-7-((1r,4r)-4-hydroxycyclohexyl)-7H-pyrrolo[2,3-d]pyrimidin-5-yl)ethynyl)-4-methyl-N-(4-((4-methylpiperazin-1-yl)methyl)-3-(trifluoromethyl)phenyl)benzamide]	0.02 to 0.05 µM	0~50	6.1 µL/min/mg	3.8 h	≤ 0.005 µM	> 1 µM	≤ 0.005 µM
Cc1ccc(NC(=O)c2ccc(CN3CCN(C)CC3)c(C(F)(F)F)c2)cc1C#Cc1cn([C@H]2CC[C@H](O)CC2)c2ncnc(N)c12 [Example 25, N-(3-((4-amino-7-((1r,4r)-4-hydroxycyclohexyl)-7H-pyrrolo[2,3-d]pyrimidin-5-yl)ethynyl)-4-methylphenyl)-4-((4-methylpiperazin-1-yl)methyl)-3-(trifluoromethyl)benzamide]	0.02 to 0.05 µM	0~50	7.6 µL/min/mg	3.03 h	≤ 0.005 µM	> 1 µM	≤ 0.005 µM
